Experimental data as given in PubChem BioAssay (NCI).
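Cells were grown in 96-well plates and exposed to each compound for 48 hours at five concentrations; endpoints were interpolated linearly between bracketing concentrations, or set to the highest concentration if not reached. TGI marks complete inhibition of growth.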

Columns and labels:
Assay in all cases: inhibition of tumour cell growth, NCI panel, 48 h
KM20L2 colon = test system: KM20L2 colon
SW-620 colon = test system: SW-620 colon
UACC-257 melanoma = test system: UACC-257 melanoma
UACC-62 melanoma = test system: UACC-62 melanoma
TK-10 renal = test system: TK-10 renal
ACHN renal = test system: ACHN renal
SN12C renal = test system: SN12C renal
NCI-H522 lung = test system: NCI-H522 lung
KM12 colon = test system: KM12 colon
LXFL 529 NSCLC = test system: LXFL 529 NSCLC
NCI-H226 lung = test system: NCI-H226 lung
LOX IMVI melanoma = test system: LOX IMVI melanoma
NCI-H23 lung = test system: NCI-H23 lung
HCT-15 colon = test system: HCT-15 colon
HCC-2998 colon = test system: HCC-2998 colon
EKVX NSCLC = test system: EKVX NSCLC
RXF 393 renal = test system: RXF 393 renal
K-562 leukemia = test system: K-562 leukemia
OVCAR-4 ovarian = test system: OVCAR-4 ovarian
UO-31 renal = test system: UO-31 renal
A549 NSCLC = test system: A549 NSCLC
SNB-19 CNS = test system: SNB-19 CNS
SF-539 CNS = test system: SF-539 CNS
XF 498 CNS = test system: XF 498 CNS
IGROV1 ovarian = test system: IGROV1 ovarian
HOP-18 NSCLC = test system: HOP-18 NSCLC
MOLT-4 leukemia = test system: MOLT-4 leukemia
U251 CNS = test system: U251 CNS
SF-268 CNS = test system: SF-268 CNS
SNB-78 CNS = test system: SNB-78 CNS
786-0 renal = test system: 786-0 renal
A498 renal = test system: A498 renal
RPMI-8226 leukemia = test system: RPMI-8226 leukemia
SK-MEL-2 melanoma = test system: SK-MEL-2 melanoma
COLO 205 colon = test system: COLO 205 colon
HT29 colon = test system: HT29 colon
NCI-H460 lung = test system: NCI-H460 lung
M14 melanoma = test system: M14 melanoma
SK-MEL-28 melanoma = test system: SK-MEL-28 melanoma
DMS 114 small cell lung = test system: DMS 114 small cell lung
MALME-3M melanoma = test system: MALME-3M melanoma
SR leukemia = test system: SR leukemia
SNB-75 CNS = test system: SNB-75 CNS
CCRF-CEM leukemia = test system: CCRF-CEM leukemia
HL-60(TB) leukemia = test system: HL-60(TB) leukemia
HCT-116 colon = test system: HCT-116 colon
DLD-1 colon = test system: DLD-1 colon
M19-MEL melanoma = test system: M19-MEL melanoma
SK-OV-3 ovarian = test system: SK-OV-3 ovarian
OVCAR-3 ovarian = test system: OVCAR-3 ovarian
HOP-92 NSCLC = test system: HOP-92 NSCLC
OVCAR-8 ovarian = test system: OVCAR-8 ovarian
DMS 273 small cell lung = test system: DMS 273 small cell lung
SF-295 CNS = test system: SF-295 CNS
HOP-62 NSCLC = test system: HOP-62 NSCLC

## CCOC(=O)C(Cc1ccc([N+](=O)[O-])cc1)NC(=O)CC1c2ccccc2-c2ccccc21 (stereo not given)
KM20L2 colon
  TGI: > 100 µM
SW-620 colon
  TGI: > 100 µM
UACC-257 melanoma
  TGI: 91.5 µM
UACC-62 melanoma
  TGI: > 100 µM
TK-10 renal
  TGI: > 100 µM
ACHN renal
  TGI: 45.1 µM
SN12C renal
  TGI: > 100 µM
NCI-H522 lung
  TGI: > 100 µM
KM12 colon
  TGI: > 100 µM
LXFL 529 NSCLC
  TGI: > 100 µM
NCI-H226 lung
  TGI: > 100 µM
LOX IMVI melanoma
  TGI: > 100 µM
NCI-H23 lung
  TGI: > 100 µM
HCT-15 colon
  TGI: > 100 µM
HCC-2998 colon
  TGI: > 100 µM
EKVX NSCLC
  TGI: > 100 µM
RXF 393 renal
  TGI: 41.6 µM
K-562 leukemia
  TGI: > 100 µM
OVCAR-4 ovarian
  TGI: > 100 µM
UO-31 renal
  TGI: > 100 µM
A549 NSCLC
  TGI: > 100 µM
SNB-19 CNS
  TGI: > 100 µM
SF-539 CNS
  TGI: 77.4 µM
XF 498 CNS
  TGI: 53.6 µM
IGROV1 ovarian
  TGI: > 100 µM
HOP-18 NSCLC
  TGI: > 100 µM
MOLT-4 leukemia
  TGI: > 100 µM
U251 CNS
  TGI: > 100 µM
SF-268 CNS
  TGI: > 100 µM
SNB-78 CNS
  TGI: 65.3 µM
786-0 renal
  TGI: > 100 µM
A498 renal
  TGI: > 100 µM
RPMI-8226 leukemia
  TGI: > 100 µM
SK-MEL-2 melanoma
  TGI: > 100 µM
COLO 205 colon
  TGI: > 100 µM
HT29 colon
  TGI: > 100 µM
NCI-H460 lung
  TGI: > 100 µM
M14 melanoma
  TGI: 57.9 µM
SK-MEL-28 melanoma
  TGI: > 100 µM
DMS 114 small cell lung
  TGI: > 100 µM
MALME-3M melanoma
  TGI: 42.3 µM
SR leukemia
  TGI: > 100 µM
SNB-75 CNS
  TGI: 68.8 µM
CCRF-CEM leukemia
  TGI: > 100 µM
HL-60(TB) leukemia
  TGI: > 100 µM
HCT-116 colon
  TGI: > 100 µM
DLD-1 colon
  TGI: > 100 µM
M19-MEL melanoma
  TGI: 38.9 µM
SK-OV-3 ovarian
  TGI: > 100 µM
OVCAR-3 ovarian
  TGI: > 100 µM
HOP-92 NSCLC
  TGI: 56.5 µM
OVCAR-8 ovarian
  TGI: > 100 µM
DMS 273 small cell lung
  TGI: > 100 µM
SF-295 CNS
  TGI: > 100 µM
HOP-62 NSCLC
  TGI: > 100 µM
